Measurements reported in ChEMBL document CHEMBL1208667, “Permanent positive charge strongly influences DNA/RNA binding and antiproliferative activity of urea-phenanthridinium conjugates” (Eur J Med Chem, 2010).
Active and inactive are the calls of the source. No cut-off for these calls is given here.

Experiments:
Nucleic Acid [1] = experiment: Binding affinity to poly A-poly U RNA in citric acid buffer at pH 5 by fluorescence titration assay; assay type: nucleic-acid assay
Nucleic Acid [2] = experiment: Binding affinity to poly A-poly U RNA assessed as melting temperature at compound to DNA molar ratio of 0.2 at pH 7 by thermal denaturation assay; assay type: nucleic-acid assay
Nucleic Acid [3] = experiment: Binding affinity to poly G-poly C RNA in sodium cacodylate buffer at pH 7 by fluorescence titration assay; assay type: nucleic-acid assay
Calf thymus DNA [4] = experiment: Binding affinity to calf thymus DNA assessed as melting temperature at compound to DNA molar ratio of 0.2 at pH 5 by thermal denaturation assay; assay type: nucleic-acid assay; details: Bos taurus
Nucleic Acid [5] = experiment: Binding affinity to poly A-poly U RNA assessed as change in melting temperature at compound to DNA molar ratio of 0.3 at pH 5 by thermal denaturation assay; assay type: nucleic-acid assay
MIA PaCa-2 [6] = experiment: Cytotoxicity against human MIAPaCa2 cells at 100 uM after 72 hrs by MTT assay; assay type: functional; details: MIA PaCa-2, 72 h
Calf thymus DNA [7] = experiment: Binding affinity to calf thymus DNA assessed as change in melting temperature at compound to DNA molar ratio of 0.2 at pH 7 by thermal denaturation assay; assay type: nucleic-acid assay; details: Bos taurus
Nucleic Acid [8] = experiment: Binding affinity to poly A-poly U RNA assessed as melting temperature at compound to DNA molar ratio of 0.3 at pH 5 by thermal denaturation assay; assay type: nucleic-acid assay
Nucleic Acid [9] = experiment: Binding affinity to poly G-poly C RNA in sodium cacodylate buffer at pH 7 by UV-v titration assay; assay type: nucleic-acid assay
Nucleic Acid [10] = experiment: Binding affinity to […] assessed as melting temperature at compound to DNA molar ratio of 0.3 at pH 7 by thermal denaturation assay; assay type: nucleic-acid assay
Nucleic Acid [11] = experiment: Binding affinity to poly A-poly U RNA in citric acid buffer at pH 5 by UV-v titration assay; assay type: nucleic-acid assay
HT-29 [12] = experiment: Cytotoxicity against human HT-29 cells at 0.1 to 100 uM after 72 hrs by MTT assay; assay type: functional, cell-based
MIA PaCa-2 [13] = experiment: Cytotoxicity against human MIAPaCa2 cells after 72 hrs by MTT assay; assay type: functional, cell-based
Nucleic Acid [14] = experiment: Binding affinity to poly A-poly U RNA assessed as biphasic transitions of change in melting temperature at compound to DNA molar ratio of 0.2 at pH 5 by thermal denaturation assay; assay type: nucleic-acid assay
Nucleic Acid [15] = experiment: Binding affinity to poly A-poly U RNA assessed as biphasic transitions of melting temperature at compound to DNA molar ratio of 0.3 at pH 5 by thermal denaturation assay; assay type: nucleic-acid assay
Nucleic Acid [16] = experiment: Binding affinity to GMP in citric acid buffer at pH 5 by fluorescence titration assay relative to control; assay type: nucleic-acid assay
Nucleic Acid [17] = experiment: Binding affinity to poly dA-poly dT RNA in sodium cacodylate buffer at pH 7 by fluorescence titration assay relative to control; assay type: nucleic-acid assay
Nucleic Acid [18] = experiment: Binding affinity to poly A-poly U RNA in sodium cacodylate buffer at pH 7 by UV-v titration assay; assay type: nucleic-acid assay
Nucleic Acid [19] = experiment: Binding affinity to poly dA-poly dT RNA in sodium cacodylate buffer at pH 7 by fluorescence titration assay; assay type: nucleic-acid assay
Nucleic Acid [20] = experiment: Binding affinity to poly A-poly U RNA in sodium cacodylate buffer at pH 7 by fluorescence titration assay; assay type: nucleic-acid assay
Calf thymus DNA [21] = experiment: Binding affinity to calf thymus DNA at compound to DNA molar ratio of 0.1 to 0.5 at pH 7 by circular dichroism; assay type: nucleic-acid assay; details: Bos taurus
Nucleic Acid [22] = experiment: Binding affinity to […] assessed as change in melting temperature at compound to DNA molar ratio of 0.2 at pH 5 by thermal denaturation assay; assay type: nucleic-acid assay
Nucleic Acid [23] = experiment: Binding affinity to poly A-poly U RNA assessed as biphasic transitions of change in melting temperature at compound to DNA molar ratio of 0.3 at pH 5 by thermal denaturation assay; assay type: nucleic-acid assay
Calf thymus DNA [24] = experiment: Binding affinity to calf thymus DNA assessed as change in melting temperature at compound to DNA molar ratio of 0.2 at pH 5 by thermal denaturation assay; assay type: nucleic-acid assay; details: Bos taurus
HT-29 [25] = experiment: Cytotoxicity against human HT-29 cells at 10 to 100 uM after 72 hrs by MTT assay; assay type: functional, cell-based
Nucleic Acid [26] = experiment: Binding affinity to poly A-poly U RNA at compound to DNA molar ratio of 0.1 to 0.4 at pH 5 by circular dichroism; assay type: nucleic-acid assay
Caco-2 = experiment: Cytotoxicity against human Caco-2 cells at 10 to 100 uM after 72 hrs by MTT assay; assay type: functional, cell-based
Nucleic Acid [27] = experiment: Binding affinity to poly G-poly C RNA in citric acid buffer at pH 5 by UV-v titration assay; assay type: nucleic-acid assay
HeLa [28] = experiment: Cytotoxicity against human HeLa cells at 10 to 100 uM after 72 hrs by MTT assay; assay type: functional, cell-based
MIA PaCa-2 [29] = experiment: Cytotoxicity against human MIAPaCa2 cells at 10 to 100 uM after 72 hrs by MTT assay; assay type: functional, cell-based
HEp-2 = experiment: Cytotoxicity against human Hep2 cells at 10 to 100 uM after 72 hrs by MTT assay; assay type: functional, cell-based
MIA PaCa-2 [30] = experiment: Drug uptake in human MIAPaCa2 cells at 1 mM after 10 mins using DAPI staining by fluorescence microscopy analysis; assay type: ADME, cell-based; details: mia paca-2, 10 min, 1000 µM
HeLa [31] = experiment: Drug uptake in human HeLa cells at 1 mM after 10 mins using DAPI staining by fluorescence microscopy analysis; assay type: ADME, cell-based; details: 1000 µM
Calf thymus DNA [32] = experiment: Binding affinity to calf thymus DNA in citric acid buffer at pH 5 by UV-v titration assay; assay type: nucleic-acid assay; details: Bos taurus
Nucleic Acid [33] = experiment: Binding affinity to […] in citric acid buffer at pH 5 by UV-v titration assay; assay type: nucleic-acid assay

| log Ks (Nucleic Acid [1]) | Tm (Nucleic Acid [2]) [°C] | log Ks (Nucleic Acid [3]) | Tm (Calf thymus DNA [4]) [°C] | ΔTm (Nucleic Acid [5]) [°C] | ΔTm (Calf thymus DNA [7]) [°C] | Tm (Nucleic Acid [8]) [°C] | log Ks (Nucleic Acid [9]) | Tm (Nucleic Acid [10]) [°C] | log Ks (Nucleic Acid [11]) | ΔTm (Nucleic Acid [14]) [°C] | RFU (Nucleic Acid [16]) | RFU (Nucleic Acid [17]) | log Ks (Nucleic Acid [19]) | log Ks (Nucleic Acid [20]) | ΔTm (Nucleic Acid [22]) [°C] | ΔTm (Calf thymus DNA [24]) [°C] | SMILES | inhibition at 100 µM (MIA PaCa-2 [6]) [%] | Activity (HT-29 [12]) | Activity (MIA PaCa-2 [13]) | also measured |
| --- | --- | --- | --- | --- | --- | --- | --- | --- | --- | --- | --- | --- | --- | --- | --- | --- | --- | --- | --- | --- | --- |
| 5.4 | 53.8 | 5.4 | 73.8 | 1.9 | 4.9 | 82.6 | 5.8 | 70.4 | 5.4 | -1.3 | -7.2 | 3.9 | 5.6 | 5.8 | 7.5 | 13.2 | Cc1c2cc(NC(=O)NCCCCCCCCCNC(=O)Nc3ccc4c(c3)c(C)[n+](C)c3ccccc43)ccc2c2ccccc2[n+]1C.O=S(=O)([O-])O.O=S(=O)([O-])O | 26.8 | inactive | Dose-dependent effect | Tm (Nucleic Acid [15]): 31.1 °C; log Ks (Nucleic Acid [18]): 5.1; Activity (Calf thymus DNA [21]): Active; ΔTm (Nucleic Acid [23]): -1.6 °C |
| 5.6 | 51.5 | 6.2 | 74.6 |  | 3.9 |  |  | 71.3 | 4.5 | -1.2 | 31.6 | 10.7 | 5.3 | 5.4 | 9.7 | 14 | Cc1c2cc(NC(=O)NCCCCCCNC(=O)Nc3ccc4c(c3)c(C)[n+](C)c3ccccc43)ccc2c2ccccc2[n+]1C.O=S(=O)([O-])O.O=S(=O)([O-])O | 43.1 | Active | Dose-dependent effect | Activity (HT-29 [25]): inactive; Activity (Nucleic Acid [26]): Active; Activity (Caco-2): inactive; log Ks (Nucleic Acid [27]): 5.1; Activity (HeLa [28]): inactive; Activity (MIA PaCa-2 [29]): inactive; Activity (HEp-2): inactive; Drug uptake (MIA PaCa-2 [30]): Active; Drug uptake (HeLa [31]): Active; log Ks (Calf thymus DNA [32]): 5.4 |
| 6.6 | 51.5 | 5.4 | 72.7 | 1.9 | 2.4 | 83.8 | 5.2 | 71 |  | -0.1 | 23.5 | 15 | 5.3 | 5.3 | 9.4 | 12.1 | Cc1c2cc(NC(=O)NCCNC(=O)Nc3ccc4c(c3)c(C)[n+](C)c3ccccc43)ccc2c2ccccc2[n+]1C.O=S(=O)([O-])O.O=S(=O)([O-])O | 35 | Active | Dose-dependent effect | Activity (Nucleic Acid [26]): Active; Tm (Nucleic Acid [15]): 31.1 °C; log Ks (Nucleic Acid [33]): 5.2; ΔTm (Nucleic Acid [23]): -0.4 °C; log Ks (Calf thymus DNA [32]): 6 |
